From patent US7928119B2, “Use of EP4 receptor ligands in the treatment of IL-6 involved diseases” (Pfizer Inc., priority 2002, dated 2011)

System: human PBMC
Assay: PGE2 stimulation of IL-6 secretion in ConA-treated human PBMC and its inhibition by EP4 antagonists (ELISA)
Format: cell-based
Conditions: ConA-treated PBMC, 50 μM compound, PGE2 10-1000 nM, 24 hr
Method: PBMC were stimulated with 5 μg/ml of Con A alone or with 10 nM to 1000 nM PGE2 at 37° C. for 24 hr. The secreted IL-6 in culture medium was measured by ELISA. Data are expressed as mean±s.d. (FIG. 1)
The PGE2 concentration-dependence of stimulation of IL-6 secretion by human PBMC without and with ConA-stimulation, and the inhibitory effect of Compound A. PBMC were stimulated with 5 μg/ml of Concanavalin A alone or with 10 nM to 1000 nM PGE2 at 37° C. in 5% CO2 for 24 hr. To see the effect of Compound A, 50 μM of Compound A was added simultaneously with ConA and PGE2, and incubated for 24 hr. Data in parenthesis are expressed % control of mitocondorial dehydrogenase activity. (FIG. 2)
Compound A and Compound B inhibited the IL-6 secretion in ConA-treated PBMC. (FIG. 3.) PBMC were incubated with 5 μg/ml of Con A, 100 nM PGE2 and various doses of EP4 antagonists at 37° C. for 24 hr. The secreted IL-6 in culture medium was measured by ELISA. Data are expressed as mean±s.d.

Molecule | IL-6 production enhanced by PGE2
CCc1nc2c(C)cc(C)nc2n1-c1ccc(CCNC(=O)NS(=O)(=O)c2ccc(C)cc2)cc1 [Compound A, N-[({2-[4-(2-ethyl-5,7-dimethyl-3H-imidazo[4,5-b]pyridin-3-yl)phenyl]ethyl}amino)carbonyl]-4-methylbenzenesulfonamide] | significantly inhibited

Same assay, conditions: Homo sapiens; PBMC stimulated with 5 μg/ml ConA and 100 nM PGE2 for 24 hr; read-out: IC50 of inhibition of IL-6 production

Molecule | IC50
CCc1nc2c(C)cc(C)nc2n1-c1ccc(CCNC(=O)NS(=O)(=O)c2ccc(C)cc2)cc1 [Compound A, N-[({2-[4-(2-ethyl-5,7-dimethyl-3H-imidazo[4,5-b]pyridin-3-yl)phenyl]ethyl}amino)carbonyl]-4-methylbenzenesulfonamide] | 13 nM

Same assay, conditions: PBMC, 5 μg/ml ConA, 24 hr, without PGE2

Molecule | secretion of IL-6
Concanavalin A [ConA] | enhanced

System: not given
Assay: not given
Conditions: not given

Molecule | melting point
CCc1nc2cc(NS(C)(=O)=O)c(Cl)cc2n1-c1ccc(CCNC(=O)NS(=O)(=O)c2ccc(C)cc2)cc1 | 101 to 123 °C
CCc1nc2cc(C(N)=O)c(Cl)cc2n1-c1ccc(CCNC(=O)NS(=O)(=O)c2ccc(C)cc2)cc1 | 152 to 163 °C
CCc1nc2cc(NC(C)=O)c(Cl)cc2n1-c1ccc(CCNC(=O)NS(=O)(=O)c2ccc(C)cc2)cc1 | 125 to 133 °C
CCc1nc2c(Cl)nc(C)cc2n1-c1ccc(CCNC(=O)NS(=O)(=O)c2ccc(C)cc2)cc1 | 163 °C
CCc1nc2c(C)cc(C)nc2n1-c1ccc(CCNC(=O)NS(=O)(=O)c2cc3ccccc3s2)cc1 | 128 to 130 °C
CCc1nc2cc(C(F)(F)F)c(Cl)cc2n1-c1ccc(CCOC(=O)NS(=O)(=O)c2ccccn2)cc1 | 127 to 130 °C
CCc1nc2cc(C(F)(F)F)c(Cl)cc2n1-c1ccc(CCN(C(=O)O)S(=O)(=O)c2ccc(C)cn2)cc1.Cl.Cl | 200.2 °C
CCc1nc2cc(C(F)(F)F)c(Cl)cc2n1-c1ccc(CCOC(=O)NS(=O)(=O)c2cccc3c(N(C)C)cccc23)cc1 | 203.4 °C
CCc1nc2cc(N(C)C)c(Cl)cc2n1-c1ccc(CCNC(=O)NS(=O)(=O)c2ccc(C)cc2)cc1 | 108 to 114 °C
CCc1nc2cc(NC)c(Cl)cc2n1-c1ccc(CCNC(=O)NS(=O)(=O)c2ccc(C)cc2)cc1 | 95 to 100 °C
CCc1nc2c(C(N)=O)cccc2n1-c1ccc(CCNC(=O)NS(=O)(=O)c2ccc(C)cc2)cc1 | 208 to 214 °C
CCc1nc2cc(S(C)(=O)=O)c(Cl)cc2n1-c1ccc(CCNC(=O)NS(=O)(=O)c2ccc(C)cc2)cc1 | 105 to 118 °C
CCc1nc2cc(S(N)(=O)=O)c(Cl)cc2n1-c1ccc(CCNC(=O)NS(=O)(=O)c2ccc(C)cc2)cc1 | 163 to 170 °C
CCc1nc2c(C)c(C#N)c(C)cc2n1-c1ccc(CCNC(=O)NS(=O)(=O)c2ccc(C)cc2)cc1 | 140 to 145 °C
CCc1nc2cc(Cl)c(Cl)nc2n1-c1ccc(CCNC(=O)NS(=O)(=O)c2ccc(C)cc2)cc1 | 188 to 189 °C
CCc1nc2c(C)c(NS(C)(=O)=O)cnc2n1-c1ccc(CCNC(=O)NS(=O)(=O)c2ccc(C)cc2)cc1 | 166 °C

Molecule | melting point
CCc1nc2c(C)cc(C)nc2n1-c1ccc(CC(C)NC(=O)NS(=O)(=O)c2ccc(C)cc2)cc1 (stereo not shown) | 128 °C
CCc1nc2cc(C)c(Cl)nc2n1-c1ccc(CCNC(=O)NS(=O)(=O)c2ccc(C)cc2)cc1 [Example 38, 5-CHLORO-2-ETHYL-6-METHYL-3-(4-{2-[({[(4-METHYLPHENYL)SULFONYL]AMINO}CARBONYL)AMINO]ETHYL}PHENYL)-3H-IMIDAZO[4,5-b]PYRIDINE] | 205 to 206 °C
CCc1nc2c(C)c(C#N)c(C)nc2n1-c1ccc(CCNC(=O)NS(=O)(=O)c2ccc(C)cc2)cc1 [Example 41, 6-CYANO-2-ETHYL-5,7-DIMETHYL-3-(4-{2-[({[(4-METHYLPHENYL)SULFONYL]AMINO}CARBONYL)AMINO]ETHYL}PHENYL)-3H-IMIDAZO[4,5-b]PYRIDINE] | 133 °C
CCc1nc2cc(C(=O)O)c(Cl)cc2n1-c1ccc(CCNC(=O)NS(=O)(=O)c2ccc(C)cc2)cc1 [Example 112, 6-CHLORO-2-ETHYL-1-(4-{2-[({[(4-METHYLPHENYL)SULFONYL]AMINO}CARBONYL)AMINO]ETHYL}PHENYL)-1H-BENZIMIDAZOLE-5-CARBOXYLIC ACID] | 145 to 150 °C
CCc1nc2cc(C(F)(F)F)c(Cl)cc2n1-c1ccc(C[C@H](C)NC(=O)NS(=O)(=O)c2ccc(C)cc2)cc1 [Example 254, N-{[((1S)-2-{4-[6-CHLORO-2-ETHYL-5-(TRIFLUOROMETHYL)-1H-BENZIMIDAZOL-1-YL]PHENYL}-1-METHYLETHYL)AMINO]CARBONYL}-4-METHYLBENZENESULFONAMIDE] | 141 to 143 °C
CCc1nc2cc(C(F)(F)F)c(Cl)cc2n1-c1ccc(C[C@@H](C)NC(=O)NS(=O)(=O)c2ccc(C)cc2)cc1 [Example 255, N-{[((1R)-2-{4-[6-CHLORO-2-ETHYL-5-(TRIFLUOROMETHYL)-1H-BENZIMIDAZOL-1-YL]PHENYL}-1-METHYLETHYL)AMINO]CARBONYL}-4-METHYLBENZENESULFONAMIDE] | 138 to 141 °C
CCc1nc2c(C)cc(C)nc2n1-c1ccc(CCNC(=O)NS(=O)(=O)c2ccncc2)cc1 [Example 274, 2-ETHYL-3-(4-{2-[({[4-PYRIDINYLSULFONYL]AMINO}CARBONYL)AMINO]ETHYL}PHENYL)-5,7-DIMETHYL-3H-IMIDAZO[4,5-b]PYRIDINE] | 227.9 to 228.7 °C
CCc1nc2cc(C(F)(F)F)c(Cl)cc2n1-c1ccc(CCOC(=O)NS(=O)(=O)c2cn(C)cn2)cc1 [Example 292, 2-{4-[6-CHLORO-2-ETHYL-5-(TRIFLUOROMETHYL)-1H-BENZIMIDAZOL-1-YL]PHENYL}ETHYL-(1-METHYL-1H-IMIDAZOL-4-YL)SULFONYLCARBAMATE] | 204.3 °C
CCc1nc2cc(C(F)(F)F)c(Cl)cc2n1-c1ccc(CCOC(=O)NS(=O)(=O)c2cn(C)c(C)n2)cc1 [Example 294, 2-{4-[6-CHLORO-2-ETHYL-5-(TRIFLUOROMETHYL)-1H-BENZIMIDAZOL-1-YL]PHENYL}ETHYL-(1,2-DIMETHYL-1H-IMIDAZOL-4-YL)SULFONYLCARBAMATE] | 221.2 °C
CCc1nc2c(C#N)cccc2n1-c1ccc(CCNC(=O)NS(=O)(=O)c2ccc(C)cc2)cc1 [Example 321, 4-CYANO-2-ETHYL-1-(4-{2-[({[(4-METHYLPHENYL)SULFONYL]AMINO}CARBONYL)AMINO]ETHYL}PHENYL)-1H-BENZIMIDAZOLE] | 95 to 103 °C
CCc1nc2cc(C(=O)NC)c(Cl)cc2n1-c1ccc(CCNC(=O)NS(=O)(=O)c2ccc(C)cc2)cc1 [Example 333, 6-CHLORO-2-ETHYL-N-METHYL-1-(4-{2-[({[(4-METHYLPHENYL)SULFONYL]AMINO}CARBONYL)AMINO]ETHYL}PHENYL)-1H-BENZIMIDAZOLE-5-CARBOXAMIDE] | 122 to 135 °C
CCc1nc2cc(COC)c(Cl)cc2n1-c1ccc(CCNC(=O)NS(=O)(=O)c2ccc(C)cc2)cc1 [Example 338, N-({[2-(4-{6-CHLORO-2-ETHYL-5-[(METHYLOXY)METHYL]-1H-BENZIMIDAZOL-1-YL}PHENYL)ETHYL]AMINO}CARBONYL)-4-METHYLBENZENSULFONAMIDE] | 134.6 °C
CCc1nc2cc(C(C)O)ccc2n1-c1ccc(CCNC(=O)NS(=O)(=O)c2ccc(C)cc2)cc1 (stereo not shown) [Example 345, N-{[(2-{4-[2-ETHYL-5-(1-HYDROXYETHYL)-1H -BENZIMIDAZOL-1-YL]PHENYL}ETHYL)AMINO]CARBONYL}-4-METHYLBENZENESULFONAMIDE] | 190 °C
Cc1ccc(S(=O)(=O)NC(=O)NCCc2ccc(-n3c(C(C)O)nc4cc(C(F)(F)F)c(Cl)cc43)cc2)cc1 (stereo not shown) [Example 367, N-{[(2-{4-[6-CHLORO-2-(1-HYDROXYETHYL)-5-(TRIFLUOROMETHYL)-1H-BENZIMIDAZOL-1-YL]PHENYL}ETHYL)AMINO]CARBONYL}-4-METHYLBENZENESULFONAMIDE] | 220 °C
CC(=O)c1nc2cc(C(F)(F)F)c(Cl)cc2n1-c1ccc(CCNC(=O)NS(=O)(=O)c2ccc(C)cc2)cc1 [Example 368, N-{[(2-{4-[2-ACETYL-6-CHLORO-5-(TRIFLUOROMETHYL)-1H-BENZIMIDAZOL-1-YL]PHENYL}ETHYL)AMINO]CARBONYL}-4-METHYLBENZENESULFONAMIDE] | 225 °C
